Assay results taken from paper PMC6792352, “Limited Chemical Structural Diversity Found to Modulate Thyroid Hormone Receptor in the Tox21 Chemical Library” (Environmental Health Perspectives, 2019).
Structures can show the parent of a compound that is named as a salt.

Assay: in vitro
Details: rat, gh3-tre-luc cells

| SMILES | CC50 at 24 h (AC50 (uM) modified / 1000) | also measured |
| --- | --- | --- |
| C[C@H]1O[C@@H](O[C@H]2[C@@H](O)C[C@H](O[C@H]3[C@@H](O)C[C@H](O[C@H]4CC[C@@]5(C)[C@H](CC[C@@H]6[C@@H]5C[C@@H](O)[C@]5(C)[C@@H](C7=CC(=O)OC7)CC[C@]65O)C4)O[C@@H]3C)O[C@@H]2C)C[C@H](O)[C@@H]1O [Digoxin] | > 90 µM | – |
| CCCCCCCCCCCCCCCCCCOCC(COP(=O)([O-])OCC[N+](C)(C)C)OC (stereo not shown) [Edelfosine] | 43.1 µM | – |
| C[C@@H](O)[C@@H](C)O [2,3-Butanediol] | > 100 µM | – |
| COc1cc(Cl)ccc1Cl [2,5-Dichloroanisole] | > 90 µM | – |
| CC(C)(C)N(NC(=O)c1ccc(Cl)cc1)C(=O)c1ccccc1 [Halofenozide] | 4.99 µM | – |
| O=S(=O)(Oc1ccc(Cl)cc1Cl)c1ccccc1 [2,4-Dichlorophenyl benzenesulfonate] | > 90 µM | – |
| CC1=CC=C(C(C)C)CC1 [alpha-Terpinene] | > 90 µM | – |
| O=C1NCC2(CCN(CCc3ccccc3)CC2)O1 [Fenspiride hydrochloride] | > 50 µM | – |
| CCCCC1CCCCC(=O)O1 (stereo not shown) [epsilon-Decalactone] | > 90 µM | – |
| OC1CCCC1 [Cyclopentanol] | > 90 µM | – |
| CN1C(=O)N(c2ccccc2Br)Cc2cnc(Nc3ccc4c(c3)OCC(CO)O4)nc21 (stereo not shown) [PharmaGSID_48519] | 37.2 µM | – |
| CCOC(=O)Nc1ccc2c(c1)N(C(=O)CCN1CCOCC1)c1ccccc1S2 [Moricizine hydrochloride] | > 20 µM | – |
| O=C(Nc1ccc(F)cc1F)c1cccnc1Oc1cccc(C(F)(F)F)c1 [Diflufenican] | > 100 µM | – |
| NC[C@@H]1O[C@H](O[C@H]2[C@@H](O)[C@H](O[C@@H]3[C@@H](O)[C@H](N)C[C@H](N)[C@H]3O[C@H]3O[C@H](CO)[C@@H](O)[C@H](O)[C@H]3N)O[C@@H]2CO)[C@H](N)[C@@H](O)[C@@H]1O [Paromomycin sulfate] | > 50 µM | – |
| C[C@]12Cc3nonc3C[C@@H]1CC[C@@H]1[C@@H]2CC[C@@]2(C)[C@H]1CC[C@]2(C)O [Furazabol] | – | CC50 at 24 h (AC50 (uM) modified / 1000, Tox21_110001=Tox21_112772, viability, 1 nM T3 present, 24 h): 25.2 µM |
| O=C(O)c1ccccc1C(=O)Nc1cccc2ccccc12 [Naptalam] | – | CC50 at 24 h (AC50 (uM) modified / 1000, Tox21_110001=Tox21_302279, viability, 1 nM T3 present, 24 h): > 90 µM |
| C=CC(=O)OCCCCCC(C)C [Isooctyl acrylate] | > 100 µM | – |
| O=C(O)CP(=O)(O)O [Phosphonoacetic acid] | > 50 µM | – |
| O=NN1CCOCC1 [N-Nitrosomorpholine] | – | CC50 at 24 h (AC50 (uM) modified / 1000, Tox21_110001=Tox21_202132, viability, 1 nM T3 present, 24 h): > 100 µM; CC50 at 24 h (AC50 (uM) modified / 1000, Tox21_110001=Tox21_302867, viability, 1 nM T3 present, 24 h): > 90 µM |
| CSCC[C@H](N)C(=O)O [Methionine] | > 50 µM | – |
| Oc1ccc([C@@H]2CNCc3c2ccc(O)c3O)cc1O [Zelandopam] | 39.3 µM | – |
| Cc1cc(N)c(S(=O)(=O)O)cc1Cl [2-Amino-5-chloro-4-methylbenzenesulfonic acid] | > 90 µM | – |
| COc1cc(NS(=O)(=O)c2ccc(N)cc2)nc(OC)n1 [Sulfadimethoxine] | > 20 µM | – |
| CC[N+](CC)(CCNC(=O)C(=O)NCC[N+](CC)(CC)Cc1ccccc1Cl)Cc1ccccc1Cl [Ambenonium chloride] | > 50 µM | – |
| Cc1ccc(C(=O)c2cc(O)c(O)c([N+](=O)[O-])c2)cc1 [Tolcapone] | 72.4 µM | – |
| Nc1ncnc(Nc2ccccc2)n1 [Amanozine] | > 50 µM | – |

| SMILES | CC50 at 24 h (AC50 (uM) modified / 1000) | also measured |
| --- | --- | --- |
| CCCC1CCC(=O)CC1 [4-Propylcyclohexanone] | > 90 µM | – |
| CCCCOC(=O)/C=C\C(=O)OCCCC [Dibutyl maleate] | > 90 µM | – |
| CCOP(=O)(O)C(N)=O [Fosamine ammonium] | – | CC50 at 24 h (AC50 (uM) modified / 1000, Tox21_110001=Tox21_301917, viability, 1 nM T3 present, 24 h): > 90 µM |
| Cc1ccc(Nc2c(F)cccc2Cl)c(CC(=O)O)c1 [Lumiracoxib] | > 50 µM | – |
| ClC1=C(Cl)C2(Cl)C3C(Cl)C(Cl)CC3C1(Cl)C2(Cl)Cl (stereo not shown) [Technical chlordane] | – | CC50 at 24 h (AC50 (uM) modified / 1000, Tox21_110001=Tox21_200290, viability, 1 nM T3 present, 24 h): 27.8 µM |
| CCCCN(CC)C(=O)SCCC [Pebulate] | > 90 µM | – |
| Clc1ccc(C2(Cn3cncn3)CC(Br)CO2)c(Cl)c1 (stereo not shown) [Bromuconazole] | > 90 µM | – |
| CNC(C)Cc1ccc2c(c1)OCO2 (stereo not shown) [1-(1,3-Benzodioxol-5-yl)-N-methylpropan-2-amine hydrochloride] | – | CC50 at 24 h (AC50 (uM) modified / 1000, Tox21_110001=Tox21_112889, viability, 1 nM T3 present, 24 h): > 100 µM |
| CCC(C)(CC)c1cc(NC(=O)c2c(OC)cccc2OC)on1 [Isoxaben] | > 90 µM | – |
| CCSc1ccc2c(c1)N(CCCN1CCN(C)CC1)c1ccccc1S2 [Thiethylperazine malate] | > 20 µM | – |
| O=[N+]([O-])c1cccc2cccc([N+](=O)[O-])c12 [1,8-Dinitronaphthalene] | – | CC50 at 24 h (AC50 (uM) modified / 1000, Tox21_110001=Tox21_202886, viability, 1 nM T3 present, 24 h): > 90 µM |
| CSc1c(Cl)c(Cl)c(Cl)c(Cl)c1Cl [Pentachlorothioanisole] | 81.6 µM | – |
| N[C@@H](C(=O)N[C@@H]1C(=O)N2C(C(=O)O)=C(CSc3c[nH]nn3)CS[C@H]12)c1ccc(O)cc1 [Cefatrizine] | > 50 µM | – |
| N=C(N)S(=O)O [Amino(imino)methanesulfinic acid] | > 90 µM | – |
| Cc1ccc(OC(=O)c2ccccc2O)cc1 [Salicylic acid p-tolyl ester] | > 90 µM | – |
| O=C(N[C@@H]1N=C(c2ccccc2F)c2cccc3c2N(CC3)C1=O)c1cc2ccccc2[nH]1 [N-[(3R)-1-(2-Fluorophenyl)-4-oxo-3,4,6,7-tetrahydro[1,4]diazepino[6,7,1-hi]indol-3-yl]-1H-indole-2-carboxamide] | > 50 µM | – |
| Cc1ccc(O)c(O)c1 [4-Methylcatechol] | 38.5 µM | – |
| Cc1onc(-c2c(F)cccc2Cl)c1C(=O)N[C@@H]1C(=O)N2[C@@H]1SC(C)(C)[C@@H]2C(=O)O [Floxacillin sodium salt] | > 50 µM | – |
| C/C=C1/C(=O)C[C@H]2[C@@H]3CCC4=CC(=O)CC[C@]4(C)[C@H]3CC[C@]12C [Guggulsterone E] | > 90 µM | – |
| O=c1c(-c2ccccc2)c1-c1ccccc1 [Diphenylcyclopropenone] | 5.54 µM | – |
| Nc1ccccc1 [Anilinium nitrate] | > 50 µM | – |
| Cc1ccc(C(C)C)cc1 [p-Cymene] | > 90 µM | – |
| NC(=O)c1cnccn1 [Pyrazinamide] | > 90 µM | – |
| CCn1cc(C(=O)O)c(=O)c2ccc(C)nc21 [Nalidixic acid] | > 90 µM | – |
| COc1cc(C)c(/C=C/C(C)=C/C=C/C(C)=C/C(=O)O)c(C)c1C [Acitretin] | > 50 µM | – |
| CCOC(=O)c1c(C)n(C)c2ccc(O)cc12 [Mecarbinate] | > 50 µM | – |

| SMILES | CC50 at 24 h (AC50 (uM) modified / 1000) | also measured |
| --- | --- | --- |
| COc1cc2nc(O)nc(O)c2cc1OC [6,7-Dimethoxyquinazoline-2,4(1H,3H)-dione] | > 20 µM | – |
| NC(=O)C(=O)N/N=C/c1ccc([N+](=O)[O-])o1 [Nifuraldezone] | 24.8 µM | – |
| CCCCC(F)(F)[C@@]1(O)CC[C@H]2[C@@H](CC(=O)[C@@H]2CCCCCCC(=O)O)O1 [Lubiprostone] | > 50 µM | – |
| O=c1[nH]c(=O)n([C@H]2C[C@H](O)[C@@H](CO)O2)cc1C(F)(F)F [Trifluridine] | > 50 µM | – |
| C=C(C)C(=O)OCC [Ethyl methacrylate] | > 100 µM | – |
| O=C1NC(=O)[C@H]2[C@@H]1[C@@H]1C=C[C@H]2C1 [Noreximide] | > 50 µM | – |
| O=C(OC(=O)c1ccccc1)c1ccccc1 [Benzoic anhydride] | > 90 µM | – |
| CC(=O)OCCCc1ccccc1 [3-Phenylpropyl acetate] | > 90 µM | – |
| CC(C)(C)NSc1nc2ccccc2s1 [N-tert-Butyl-2-benzothiazolesulfenamide] | > 90 µM | – |
| CCC(=O)O[C@]1(C(=O)CCl)[C@@H](C)C[C@H]2[C@@H]3CCC4=CC(=O)C=C[C@]4(C)[C@@]3(F)[C@@H](O)C[C@@]21C [Clobetasol propionate] | > 50 µM | – |
| O=S1(=O)CCCC1 [Sulfolane] | > 90 µM | – |
| NC(=O)N1c2ccccc2CC(=O)c2ccccc21 [Oxcarbazepine] | 14.5 µM | – |
| C=C(C)CCl [3-Chloro-2-methylpropene] | – | CC50 at 24 h (AC50 (uM) modified / 1000, Tox21_110001=Tox21_201640, viability, 1 nM T3 present, 24 h): > 90 µM; CC50 at 24 h (AC50 (uM) modified / 1000, Tox21_110001=Tox21_303609, viability, 1 nM T3 present, 24 h): > 9 µM |
| CCCCCCCC(=O)OCCCCCC [Hexyl octanoate] | > 90 µM | – |
| Nc1ncn([C@H]2C[C@H](O)[C@@H](CO)O2)c(=O)n1 [Decitabine] | > 50 µM | – |
| CCNc1nc(NC(C)C)nc(OC)n1 [Atraton] | > 90 µM | – |
| CN(C)Cc1cc(CN(C)C)c(O)c(CN(C)C)c1 [2,4,6-Tris(dimethylaminomethyl)phenol] | > 90 µM | – |
| CC(C)CCCCCCCOC(=O)CCCCC(=O)OCCCCCCCC(C)C [Diisodecyl hexanedioate] | > 100 µM | – |
| CC1(C)CC(N=C=O)CC(C)(CN=C=O)C1 (stereo not shown) [Isophorone diisocyanate] | > 90 µM | – |
| CCOC(=O)c1ccc(OCCN2C[C@H](O)[C@@H](O)[C@H](O)[C@H]2CO)cc1 [Emiglitate] | > 50 µM | – |
| CC(CCl)OP(=O)(OC(C)CCl)OC(C)CCl (stereo not shown) [Tris(2-chloroisopropyl)phosphate] | > 90 µM | – |
| COc1ccc(CN2CCNCC2)c(OC)c1OC [Trimetazidine dihydrochloride] | > 20 µM | – |
| Cc1ccc(C=O)cc1C [3,4-Dimethylbenzaldehyde] | > 90 µM | – |
| C[N+](C)(C)CC1CO1 (stereo not shown) [Glycidyl trimethylammonium chloride] | > 90 µM | – |
| CN(C)C(=O)Oc1ccc[n+](C)c1 [Pyridostigmine bromide] | > 50 µM | – |
